# Where “and” joins values, the source holds several entries; their conditions need not be identical. Equal values may be shown once. Calls of active or inactive are those of the source. The rule behind the calls is not given here.
# Tested on: rodent lifetime carcinogenesis bioassay, tumor incidence TD50
# Test: chronic cancer bioassays in animals – CPDB, compiled studies (AID 1745844)
# [1] = mouse, strain Charles River CD1, females, in drinking water, site: all sites, lesion: all vascular tumors, dosed 52 weeks, study length 52 weeks
# [2] = mouse, strain Charles River CD1, males, in drinking water, site: all sites, lesion: all vascular tumors, dosed 52 weeks, study length 52 weeks
# [3] = mouse, strain Charles River CD1, males, in drinking water, site: liver, lesion: hepatocellular carcinoma, dosed 52 weeks, study length 52 weeks
# [4] = mouse, strain Charles River CD1, males, in drinking water, site: liver, lesion: several types, types named in the paper, dosed 52 weeks, study length 52 weeks
# [5] = mouse, strain Charles River CD1, males, in drinking water, site: lung, lesion: alveolar/bronchiolar adenoma, dosed 52 weeks, study length 52 weeks
structure (smiles),measurement,setting,value
CN(C)N,TD50,"hamster, strain Syrian Golden, females, in drinking water, site: blood vessels, lesion: several types, types named in the paper, dosed 79 weeks, study length 79 weeks",620 mg/kg/day
same,TD50,"hamster, strain Syrian Golden, females, in drinking water, site: cecum, lesion: several types, types named in the paper, dosed 79 weeks, study length 79 weeks",104 mg/kg/day
same,TD50,"hamster, strain Syrian Golden, females, in drinking water, site: liver, lesion: several types, types named in the paper, dosed 79 weeks, study length 79 weeks",620 mg/kg/day
same,TD50,"hamster, strain Syrian Golden, males, in drinking water, site: blood vessels, lesion: several types, types named in the paper, dosed 91 weeks, study length 91 weeks",183 mg/kg/day
same,TD50,"hamster, strain Syrian Golden, males, in drinking water, site: cecum, lesion: adenocarcinoma, dosed 91 weeks, study length 91 weeks",322 mg/kg/day
same,TD50,"hamster, strain Syrian Golden, males, in drinking water, site: cecum, lesion: polypoid adenoma, dosed 91 weeks, study length 91 weeks",372 mg/kg/day
same,TD50,"hamster, strain Syrian Golden, males, in drinking water, site: cecum, lesion: several types, types named in the paper, dosed 91 weeks, study length 91 weeks",155 mg/kg/day
same,TD50,"hamster, strain Syrian Golden, males, in drinking water, site: liver, lesion: angioma, dosed 91 weeks, study length 91 weeks",975 mg/kg/day
same,TD50,"hamster, strain Syrian Golden, males, in drinking water, site: liver, lesion: angiosarcoma, dosed 91 weeks, study length 91 weeks",242 mg/kg/day
same,TD50,"hamster, strain Syrian Golden, males, in drinking water, site: liver, lesion: several types, types named in the paper, dosed 91 weeks, study length 91 weeks",183 mg/kg/day
same,TD50,[1],26 mg/kg/day
same,carcinogen call,[1],negative (inactive)
same,TD50,"mouse, strain Charles River CD1, females, in drinking water, site: all sites, lesion: all vascular tumors, dosed 104 weeks, study length 104 weeks",11.1 mg/kg/day
same,TD50,"mouse, strain Charles River CD1, females, in drinking water, site: all sites, lesion: hemangioma, dosed 52 weeks, study length 52 weeks",39.7 mg/kg/day
same,TD50,"mouse, strain Charles River CD1, females, in drinking water, site: all sites, lesion: hemangiosarcoma, dosed 52 weeks, study length 52 weeks",80.8 mg/kg/day
same,TD50,"mouse, strain Charles River CD1, females, in drinking water, site: liver, lesion: all vascular tumors, dosed 52 weeks, study length 52 weeks",26 mg/kg/day
same,TD50,"mouse, strain Charles River CD1, females, in drinking water, site: liver, lesion: hemangioma, dosed 52 weeks, study length 52 weeks",39.7 mg/kg/day
same,TD50,"mouse, strain Charles River CD1, females, in drinking water, site: liver, lesion: hemangiosarcoma, dosed 52 weeks, study length 52 weeks",80.8 mg/kg/day
same,TD50,"mouse, strain Charles River CD1, females, in drinking water, site: liver, lesion: hepatocellular adenoma, dosed 104 weeks, study length 104 weeks",98.7 mg/kg/day and 63.6 mg/kg/day
same,TD50,"mouse, strain Charles River CD1, females, in drinking water, site: liver, lesion: hepatocellular carcinoma, dosed 104 weeks, study length 104 weeks",340 mg/kg/day
same,carcinogen call,"mouse, strain Charles River CD1, females, in drinking water, site: liver, lesion: one or several types, types not named, dosed 52 weeks, study length 52 weeks",negative (inactive)
same,TD50,"mouse, strain Charles River CD1, females, in drinking water, site: liver, lesion: several types, types named in the paper, dosed 104 weeks, study length 104 weeks",74.7 mg/kg/day
same,TD50,"mouse, strain Charles River CD1, females, in drinking water, site: lung, lesion: alveolar/bronchiolar carcinoma, dosed 52 weeks, study length 52 weeks",81.5 mg/kg/day
same,TD50,"mouse, strain Charles River CD1, females, in drinking water, site: lung, lesion: several types, types named in the paper, dosed 52 weeks, study length 52 weeks",3.68 mg/kg/day
same,TD50,[2],12.6 mg/kg/day
same,carcinogen call,[2],negative (inactive)
same,TD50,"mouse, strain Charles River CD1, males, in drinking water, site: all sites, lesion: all vascular tumors, dosed 104 weeks, study length 104 weeks",6.13 mg/kg/day
same,TD50,"mouse, strain Charles River CD1, males, in drinking water, site: all sites, lesion: hemangioma, dosed 52 weeks, study length 52 weeks",33.4 mg/kg/day
same,TD50,"mouse, strain Charles River CD1, males, in drinking water, site: all sites, lesion: hemangioma, dosed 104 weeks, study length 104 weeks",339 mg/kg/day
same,TD50,"mouse, strain Charles River CD1, males, in drinking water, site: all sites, lesion: hemangiosarcoma, dosed 52 weeks, study length 52 weeks",21.7 mg/kg/day
same,TD50,"mouse, strain Charles River CD1, males, in drinking water, site: liver, lesion: all vascular tumors, dosed 52 weeks, study length 52 weeks",12.6 mg/kg/day
same,TD50,"mouse, strain Charles River CD1, males, in drinking water, site: liver, lesion: all vascular tumors, dosed 104 weeks, study length 104 weeks",6.47 mg/kg/day
same,TD50,"mouse, strain Charles River CD1, males, in drinking water, site: liver, lesion: hemangioma, dosed 52 weeks, study length 52 weeks",33.4 mg/kg/day
same,TD50,"mouse, strain Charles River CD1, males, in drinking water, site: liver, lesion: hemangioma, dosed 104 weeks, study length 104 weeks",339 mg/kg/day
same,TD50,"mouse, strain Charles River CD1, males, in drinking water, site: liver, lesion: hemangiosarcoma, dosed 52 weeks, study length 52 weeks",21.7 mg/kg/day
same,TD50,"mouse, strain Charles River CD1, males, in drinking water, site: liver, lesion: hepatocellular adenoma, dosed 52 weeks, study length 52 weeks",26.7 mg/kg/day (inactive)
same,TD50,[3],10.8 mg/kg/day
same,carcinogen call,[3],negative (inactive)
same,TD50,"mouse, strain Charles River CD1, males, in drinking water, site: liver, lesion: hepatocellular carcinoma, dosed 104 weeks, study length 104 weeks",11.9 mg/kg/day and 33.4 mg/kg/day
same,TD50,[4],6.28e+06 mg/kg/day
same,carcinogen call,[4],negative (inactive)
same,TD50,[5],5.18 mg/kg/day
same,carcinogen call,[5],negative (inactive)
same,TD50,"mouse, strain Charles River CD1, males, in drinking water, site: lung, lesion: alveolar/bronchiolar carcinoma, dosed 52 weeks, study length 52 weeks",67.4 mg/kg/day
same,TD50,"mouse, strain Charles River CD1, males, in drinking water, site: lung, lesion: alveolar/bronchiolar carcinoma, dosed 104 weeks, study length 104 weeks",89 mg/kg/day and 33.4 mg/kg/day
same,TD50,"mouse, strain Charles River CD1, males, in drinking water, site: lung, lesion: several types, types named in the paper, dosed 52 weeks, study length 52 weeks",4.33 mg/kg/day
same,TD50,"mouse, strain Charles River CD1, males, in drinking water, site: lung, lesion: several types, types named in the paper, dosed 104 weeks, study length 104 weeks",39.6 mg/kg/day and 26.4 mg/kg/day
same,TD50,"mouse, strain Swiss albino, females, in drinking water, site: blood vessels, lesion: angiosarcoma, dosed 72 weeks, study length 72 weeks",3.57 mg/kg/day
same,TD50,"mouse, strain Swiss albino, females, in drinking water, site: blood vessels, lesion: several types, types named in the paper, dosed 72 weeks, study length 72 weeks",3.65 mg/kg/day
same,TD50,"mouse, strain Swiss albino, females, in drinking water, site: kidney, lesion: adenoma, dosed 72 weeks, study length 72 weeks",148 mg/kg/day
same,TD50,"mouse, strain Swiss albino, females, in drinking water, site: lung, lesion: adenocarcinoma, dosed 72 weeks, study length 72 weeks",51.6 mg/kg/day
same,TD50,"mouse, strain Swiss albino, females, in drinking water, site: lung, lesion: adenoma, dosed 72 weeks, study length 72 weeks",5.58 mg/kg/day
same,TD50,"mouse, strain Swiss albino, females, in drinking water, site: lung, lesion: several types, types named in the paper, dosed 72 weeks, study length 72 weeks",5.69 mg/kg/day
same,TD50,"mouse, strain Swiss albino, males, in drinking water, site: blood vessels, lesion: angiosarcoma, dosed 62 weeks, study length 62 weeks",2.09 mg/kg/day
same,TD50,"mouse, strain Swiss albino, males, in drinking water, site: blood vessels, lesion: several types, types named in the paper, dosed 62 weeks, study length 62 weeks",2.11 mg/kg/day
same,TD50,"mouse, strain Swiss albino, males, in drinking water, site: kidney, lesion: adenoma, dosed 62 weeks, study length 62 weeks",19.5 mg/kg/day
same,TD50,"mouse, strain Swiss albino, males, in drinking water, site: liver, lesion: hepatoma, dosed 62 weeks, study length 62 weeks",30.4 mg/kg/day
same,TD50,"mouse, strain Swiss albino, males, in drinking water, site: lung, lesion: adenocarcinoma, dosed 62 weeks, study length 62 weeks",46.6 mg/kg/day
same,TD50,"mouse, strain Swiss albino, males, in drinking water, site: lung, lesion: adenoma, dosed 62 weeks, study length 62 weeks",2.62 mg/kg/day
same,TD50,"mouse, strain Swiss albino, males, in drinking water, site: lung, lesion: several types, types named in the paper, dosed 62 weeks, study length 62 weeks",2.62 mg/kg/day
same,TD50,"mouse, strain Swiss, females, by gavage, site: lung, lesion: one or several types, types not named, dosed 40 weeks, study length 55 weeks",16 mg/kg/day
same,carcinogen call,"rat, strain Fischer 344, females, in drinking water, site: liver, lesion: hemangioma, dosed 52 weeks, study length 52 weeks",negative (inactive)
same,TD50,"rat, strain Fischer 344, females, in drinking water, site: liver, lesion: hepatocellular adenoma, dosed 104 weeks, study length 104 weeks",184 mg/kg/day (inactive)
same,TD50,"rat, strain Fischer 344, females, in drinking water, site: liver, lesion: hepatocellular carcinoma, dosed 104 weeks, study length 104 weeks",40.7 mg/kg/day (inactive)
same,TD50,"rat, strain Fischer 344, females, in drinking water, site: liver, lesion: several types, types named in the paper, dosed 104 weeks, study length 104 weeks",30.9 mg/kg/day (inactive)
same,TD50,"rat, strain Fischer 344, females, in drinking water, site: pituitary gland, lesion: adenoma, dosed 104 weeks, study length 104 weeks",14.8 mg/kg/day (inactive)
same,TD50,"rat, strain Fischer 344, males, in drinking water, site: liver, lesion: hepatocellular adenoma, dosed 104 weeks, study length 104 weeks",205 mg/kg/day (inactive)
same,TD50,"rat, strain Fischer 344, males, in drinking water, site: liver, lesion: hepatocellular carcinoma, dosed 104 weeks, study length 104 weeks",650 mg/kg/day (inactive)
same,carcinogen call,"rat, strain Fischer 344, males, in drinking water, site: liver, lesion: one or several types, types not named, dosed 52 weeks, study length 52 weeks",negative (inactive)
same,TD50,"rat, strain Fischer 344, males, in drinking water, site: liver, lesion: several types, types named in the paper, dosed 104 weeks, study length 104 weeks",155 mg/kg/day (inactive)
CC(=O)[O][Sn]([c]1ccccc1)([c]1ccccc1)[c]1ccccc1,TD50,"mouse, strain B6AKF1, females, oral dosing, site: any site (literature study), lesion: several types, types named in the paper, dosed 76 weeks, study length 76 weeks",437 mg/kg/day (inactive)
same,carcinogen call,"mouse, strain B6AKF1, females, oral dosing, site: liver, lesion: hepatoma, dosed 76 weeks, study length 76 weeks",negative (inactive)
same,TD50,"mouse, strain B6AKF1, females, oral dosing, site: lung, lesion: adenoma, dosed 76 weeks, study length 76 weeks",964 mg/kg/day (inactive)
same,TD50,"mouse, strain B6AKF1, males, oral dosing, site: any site (literature study), lesion: several types, types named in the paper, dosed 76 weeks, study length 76 weeks",307 mg/kg/day (inactive)
same,TD50,"mouse, strain B6AKF1, males, oral dosing, site: liver, lesion: hepatoma, dosed 76 weeks, study length 76 weeks",241 mg/kg/day (inactive)
same,carcinogen call,"mouse, strain B6AKF1, males, oral dosing, site: lung, lesion: adenoma, dosed 76 weeks, study length 76 weeks",negative (inactive)
same,TD50,"mouse, strain B6C3F1, females, oral dosing, site: any site (literature study), lesion: several types, types named in the paper, dosed 76 weeks, study length 76 weeks",284 mg/kg/day (inactive)
same,TD50,"mouse, strain B6C3F1, females, oral dosing, site: liver, lesion: hepatoma, dosed 76 weeks, study length 76 weeks",909 mg/kg/day (inactive)
same,TD50,"mouse, strain B6C3F1, females, oral dosing, site: lung, lesion: adenoma, dosed 76 weeks, study length 76 weeks",440 mg/kg/day (inactive)
same,TD50,"mouse, strain B6C3F1, males, oral dosing, site: any site (literature study), lesion: several types, types named in the paper, dosed 76 weeks, study length 76 weeks",117 mg/kg/day (inactive)
same,TD50,"mouse, strain B6C3F1, males, oral dosing, site: liver, lesion: hepatoma, dosed 76 weeks, study length 76 weeks",407 mg/kg/day (inactive)
same,TD50,"mouse, strain B6C3F1, males, oral dosing, site: lung, lesion: adenoma, dosed 76 weeks, study length 76 weeks",262 mg/kg/day (inactive)
